Reference: patent US8575156B2, “Cyclic inhibitors of 11β-hydroxysteroid dehydrogenase 1” (Vitae Pharmaceuticals, Inc., priority 2007, dated 2013)
pIC50: −log10 of the molar value. Read-outs that look alike come from different tables or passages of the source.

Target: 11β-HSD1 (Homo sapiens, UniProt P28845)
Assay: biochemical
Details: for pIC50: IC50 Range, Biological Test Example 1, microsomes from CHO cells overexpressing human 11β-HSD1; for inhibition at 0.1 µM: read-out: Average % inhibition at 100 nM, Biological Test Example 1, 100 nM compound
[1] = read-out: Average % inhibition at 111.1 nM, Biological Test Example 1, 111.1 nM compound
[2] = read-out: Average % inhibition at 111.1 nM

Chain of 11β-HSD1 (P28845 whole entry): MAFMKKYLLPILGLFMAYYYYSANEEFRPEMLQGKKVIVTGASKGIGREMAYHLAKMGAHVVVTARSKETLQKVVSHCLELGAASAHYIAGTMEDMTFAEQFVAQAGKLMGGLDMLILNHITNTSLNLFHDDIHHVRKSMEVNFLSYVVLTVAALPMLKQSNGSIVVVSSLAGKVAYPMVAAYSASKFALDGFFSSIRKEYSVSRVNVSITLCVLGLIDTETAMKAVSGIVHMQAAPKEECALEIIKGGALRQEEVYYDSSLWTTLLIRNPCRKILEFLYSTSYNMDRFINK

Row | SMILES | pIC50 | inhibition at 0.1111 µM [1] [%] | inhibition at 0.1 µM [%] | inhibition at 0.1111 µM [2] [%]
1 | CC1(c2ccccc2)CCN(c2cccc(-c3cccc(-c4nnn[nH]4)c3)c2)C(=O)O1 (centres unmarked) [EXAMPLE 49, 3-(3′-(1H-tetrazol-5-yl)biphenyl-3-yl)-6-methyl-6-phenyl-1,3-oxazinan-2-one] | 6.00 to 7.00 | 15.4 | – | –
2 | CC1(c2cccc(Cl)c2)CCN(c2cccc(N3CCCCC3)n2)C(=O)O1 (centres unmarked) [EXAMPLE 53, 6-(3-chlorophenyl)-6-methyl-3-(6-(piperidin-1-yl)pyridin-2-yl)-1,3-oxazinan-2-one] | > 7.00 | – | – | 57.1
3 | CC1(c2ccccc2)CCN(c2ccnc(-c3ccc(F)cc3)n2)C(=O)O1 (centres unmarked) [EXAMPLE 55, 3-(2-(4-fluorophenyl)pyrimidin-4-yl)-6-methyl-6-phenyl-1,3-oxazinan-2-one] | 6.00 to 7.00 | – | – | 3.7
4 | CC1(c2ccccc2)CCN(c2ccnc(-c3cccc(F)c3)n2)C(=O)O1 (centres unmarked) [EXAMPLE 56, 3-(2-(3-fluorophenyl)pyrimidin-4-yl)-6-methyl-6-phenyl-1,3-oxazinan-2-one] | 6.00 to 7.00 | – | – | 5.6
5 | CC1(c2ccccc2)CCN(c2nccc(Cl)n2)C(=O)O1 (centres unmarked) [EXAMPLE 57, 3-(4-chloropyrimidin-2-yl)-6-methyl-6-phenyl-1,3-oxazinan-2-one] | 6.00 to 7.00 | – | – | 10.4
6 | CC1(c2ccccc2)CCN(c2nccc(-c3cccc(Cl)c3)n2)C(=O)O1 (centres unmarked) [EXAMPLE 58, 3-(4-(3-chlorophenyl)pyrimidin-2-yl)-6-methyl-6-phenyl-1,3-oxazinan-2-one] | 6.00 to 7.00 | 34.8 | – | –
7 | CC1(c2ccccc2)CCN(c2nccc(-c3ccc(F)cc3F)n2)C(=O)O1 (centres unmarked) [EXAMPLE 59, 3-(4-(2,4-difluorophenyl)pyrimidin-2-yl)-6-methyl-6-phenyl-1,3-oxazinan-2-one] | 6.00 to 7.00 | 18 | – | –
8 | CC1(c2ccccc2)CCN(c2nccc(-c3c(Cl)cccc3Cl)n2)C(=O)O1 (centres unmarked) [EXAMPLE 60, 3-(4-(2,6-dichlorophenyl)pyrimidin-2-yl)-6-methyl-6-phenyl-1,3-oxazinan-2-one] | 6.00 to 7.00 | 51.3 | – | –
9 | CC1(c2ccccc2)CCN(c2nccc(-c3ccc(F)cc3)n2)C(=O)O1 (centres unmarked) [EXAMPLE 61, 3-(4-(4-fluorophenyl)pyrimidin-2-yl)-6-methyl-6-phenyl-1,3-oxazinan-2-one] | 6.00 to 7.00 | 17.7 | – | –
10 | CC1(c2ccccc2)CCN(c2nccc(-c3cccc(F)c3)n2)C(=O)O1 (centres unmarked) [EXAMPLE 62, 3-(4-(3-fluorophenyl)pyrimidin-2-yl)-6-methyl-6-phenyl-1,3-oxazinan-2-one] | 6.00 to 7.00 | 20.5 | – | –
11 | O=C(O)CC1(c2ccccc2)CCN(c2cccc(-c3ccc(F)cc3F)c2)C(=O)O1 (centres unmarked) [EXAMPLE 70, 2-(3-(2′,4′-difluorobiphenyl-3-yl)-2-oxo-6-phenyl-1,3-oxazinan-6-yl)acetic acid] | 6.00 to 7.00 | 9.3 | – | –
12 | CC1(c2ccccc2)CCN(Cc2cccc(Br)c2)C(=O)O1 (centres unmarked) [EXAMPLE 71, 3-(3-bromobenzyl)-6-methyl-6-phenyl-1,3-oxazinan-2-one] | 6.00 to 7.00 | – | – | –

Now from value to compound, other results behind:

Row | pIC50 | inhibition at 0.1111 µM [1] [%] | inhibition at 0.1 µM [%] | SMILES | inhibition at 0.1111 µM [2] [%]
13 | 6.00 to 7.00 | 19.9 | – | CC(=O)NCc1cccc(-c2cccc(N3CCC(C)(c4ccccc4)OC3=O)c2)c1 (centres unmarked) [EXAMPLE 41, N-((3′-(6-methyl-2-oxo-6-phenyl-1,3-oxazinan-3-yl)biphenyl-3-yl)methyl)acetamide] | –
14 | 6.00 to 7.00 | 36.7 | – | CN(C)C(=O)c1ccc(-c2cccc(N3CCC(C)(c4ccccc4)OC3=O)c2)cc1 (centres unmarked) [EXAMPLE 42, N,N-dimethyl-3′-(6-methyl-2-oxo-6-phenyl-1,3-oxazinan-3-yl)biphenyl-4-carboxamide] | –
15 | > 7.00 | 77.7 | – | CC1(c2ccccc2)CCN(c2cccc(-c3ccc(O)cc3)c2)C(=O)O1 (centres unmarked) [EXAMPLE 43, 3-(4′-hydroxybiphenyl-3-yl)-6-methyl-6-phenyl-1,3-oxazinan-2-one] | –
16 | 6.00 to 7.00 | 35 | – | CC1(c2ccccc2)CCN(c2cccc(-c3ccc(C(N)=O)cc3)c2)C(=O)O1 (centres unmarked) [EXAMPLE 44, 3′-(6-methyl-2-oxo-6-phenyl-1,3-oxazinan-3-yl)biphenyl-4-carboxamide] | –
17 | 6.00 to 7.00 | 31.2 | – | CC1(c2ccccc2)CCN(c2cccc(-c3ccccc3NS(C)(=O)=O)c2)C(=O)O1 (centres unmarked) [EXAMPLE 45, N-(3′-(6-methyl-2-oxo-6-phenyl-1,3-oxazinan-3-yl)biphenyl-2-yl)methanesulfonamide] | –
18 | 6.00 to 7.00 | 46.4 | – | COC(=O)c1ccc(-c2cccc(N3CCC(C)(c4ccccc4)OC3=O)c2)cc1 (centres unmarked) [EXAMPLE 46, methyl 3′-(6-methyl-2-oxo-6-phenyl-1,3-oxazinan-3-yl)biphenyl-4-carboxylate] | –
19 | 6.00 to 7.00 | 36.3 | – | CNS(=O)(=O)c1ccc(-c2cccc(N3CCC(C)(c4ccccc4)OC3=O)c2)cc1 (centres unmarked) [EXAMPLE 47, N-methyl-3′-(6-methyl-2-oxo-6-phenyl-1,3-oxazinan-3-yl)biphenyl-4-sulfonamide] | –
20 | 6.00 to 7.00 | 37 | – | CC1(c2ccccc2)CCN(c2cccc(-c3ccc(CO)cc3)c2)C(=O)O1 (centres unmarked) [EXAMPLE 48, 3-(4′-(hydroxymethyl)biphenyl-3-yl)-6-methyl-6-phenyl-1,3-oxazinan-2-one] | –
21 | > 7.00 | 96.3 | – | O=C1OC(CCO)(c2ccccc2F)CCN1c1cccc(-c2ccc(F)cc2Cl)n1 (centres unmarked) [EXAMPLE 50, 3-(6-(2-chloro-4-fluorophenyl)pyridin-2-yl)-6-(2-fluorophenyl)-6-(2-hydroxyethyl)-1,3-oxazinan-2-one] | –
22 | > 7.00 | – | 98.6 | C[C@@H](c1ccc(-c2ccc(F)cc2F)cc1)N1CC[C@](CC(O)CO)(c2ccc(F)cc2)OC1=O (stereo partly drawn) [EXAMPLE 52, (6S)-3-((S)-1-(2′,4′-difluorobiphenyl-4-yl)ethyl)-6-(2,3-dihydroxypropyl)-6-(4-fluorophenyl)-1,3-oxazinan-2-one] | –
23 | > 7.00 | 59 | – | C=CCC1(c2ccccc2)CCN(c2cccc(Br)c2)C(=O)O1 (centres unmarked) [EXAMPLE 63, 6-allyl-3-(3-bromophenyl)-6-phenyl-1,3-oxazinan-2-one] | –
24 | > 7.00 | 96.6 | 93.1 | O=C1OC(CCO)(c2ccccc2F)CCN1c1ccc(F)c(-c2ccc(F)cc2)c1 (centres unmarked) [EXAMPLE 67, 3-(4′,6-difluorobiphenyl-3-yl)-6-(2-fluorophenyl)-6-(2-hydroxyethyl)-1,3-oxazinan-2-one] | –
25 | > 7.00 | 92.9 | 92 | O=C1OC(CCO)(c2ccccc2)CCN1c1cccc(-c2ccc(F)cc2Cl)c1 (centres unmarked) [EXAMPLE 68, 3-(2′-chloro-4′-fluorobiphenyl-3-yl)-6-(2-hydroxyethyl)-6-phenyl-1,3-oxazinan-2-one] | –
26 | > 7.00 | 94.8 | 94.7 | O=C1OC(CCO)(c2ccccc2)CCN1c1cccc(-c2c(Cl)cccc2Cl)c1 (centres unmarked) [EXAMPLE 69, 3-(2′,6′-dichlorobiphenyl-3-yl)-6-(2-hydroxyethyl)-6-phenyl-1,3-oxazinan-2-one] | –
27 | > 7.00 | 77.5 | – | CC1(c2ccccc2)CCN(Cc2ccccc2Br)C(=O)O1 (centres unmarked) [EXAMPLE 72, 3-(2-bromobenzyl)-6-methyl-6-phenyl-1,3-oxazinan-2-one] | –
